# In ChEMBL document CHEMBL5528067, “From Synergy to Monotherapy: Discovery of Novel 2,4,6-Trisubstituted Triazine Hydrazone Derivatives with Potent Antifungal Potency In Vitro and In Vivo” (J Med Chem, 2024):
# Calls of active or inactive are those of the source. The rule behind the calls is not given here.
# Key:
# [1] = system: Candida albicans; assay: Effect on HWP1 gene expression in Candida albicans SC5314 at 4 to 8 microg/ml by real time RT-PCR analysis; assay type: functional; conditions: dose 4-8 µg/ml
# [2] = system: Candida albicans; assay: Suppression of ALS3 gene expression in Candida albicans SC5314 at 4 to 8 microg/ml by real time RT-PCR analysis; assay type: functional; conditions: dose 4-8 µg/ml
# [3] = system: Cryptococcus neoformans; assay: Antifungal activity against FCZ-resistant Cryptococcus neoformans 32609 assessed as growth inhibition at 0.5 to 4 microg/ml measured at 24 hrs incubation by time growth assay; assay type: functional, organism-based; conditions: dose 0.5-4 µg/ml
# [4] = system: Candida albicans; assay: Suppression of BCR1 gene expression in Candida albicans SC5314 assessed as fold increase at 8 microg/ml by real time RT-PCR analysis relative to control; assay type: functional; conditions: dose 8.0 µg/ml
# [5] = system: Candida albicans; assay: Antifungal activity against FCZ-resistant Candida albicans strain 904 assessed as growth inhibition in presence of fluconazole measured after 48 hrs incubation by CLSI based micro-dilution broth method; assay type: functional
# [6] = system: Candida albicans; assay: Upregulation of BCR1 gene expression in Candida albicans SC5314 assessed as fold increase at 4 microg/ml by real time RT-PCR analysis relative to control; assay type: functional; conditions: dose 4.0 µg/ml
# [7] = Hemolytic activity in rabbit Red blood cell assessed as hemolysis rate at 64 microg/ml incubated for 1 hr; assay type: toxicity, cell-based, Oryctolagus cuniculus, Erythrocyte; conditions: red blood cells, at 64 µg/mL, read-out: Activity
# [8] = system: Candida albicans; assay: Antibiofilm activity against Candida albicans SC5314 assessed as inhibition of biofilm formation at 64 microg/ml incubated for 24 hrs by XTT/menadione reduction assay relative to control; assay type: functional; design: scale not given: the % may be the effect or the level left; conditions: dose 64 µg/ml
# [9] = system: Candida albicans; assay: Antifungal activity against FCZ-resistant Candida albicans strain 901 assessed as growth inhibition in presence of fluconazole measured after 48 hrs incubation by CLSI based micro-dilution broth method; assay type: functional
# [10] = system: Candida albicans; assay: Antibiofilm activity against Candida albicans SC5314 assessed as inhibition of biofilm formation incubated for 24 hrs by XTT/menadione reduction assay; assay type: functional, organism-based; conditions: dose 1-64 µg/ml
# [11] = system: Candida albicans; assay: Antifungal activity against FCZ-resistant Candida albicans strain 901 assessed as growth inhibition measured after 48 hrs incubation by CLSI based micro-dilution broth method; assay type: functional
# [12] = system: Candida albicans; assay: Antibiofilm activity against Candida albicans SC5314 assessed as inhibition of biofilm formation at 32 microg/ml incubated for 24 hrs by XTT/menadione reduction assay relative to control; assay type: functional; design: scale not given: the % may be the effect or the level left; conditions: dose 32 µg/ml
# [13] = system: Candida albicans; assay: Filamentation inhibitory effect in Candida albicans SC5314 assessed as inhibition of hyphal formation using hyphal-inducing RPMI 1640 medium at 2 to 8 microg/ml measured after 3 hrs by inverted imaging microscopy; assay type: functional, organism-based; conditions: dose 2-8 µg/ml
# [14] = system: Candida albicans; assay: Antifungal activity against FCZ-resistant Candida albicans strains assessed as growth inhibition in presence of FCZ measured after 48 hrs incubation by CLSI based micro-dilution broth method; assay type: functional
# [15] = system: Candida albicans; assay: Suppression of ALS1 gene expression in Candida albicans SC5314 at 4 to 8 microg/ml by real time RT-PCR analysis; assay type: functional; conditions: dose 4-8 µg/ml
# [16] = system: Candida albicans; assay: Suppression of SAP2 gene expression in Candida albicans SC5314 assessed as fold increase at 8 microg/ml by real time RT-PCR analysis relative to control; assay type: functional; conditions: dose 8.0 µg/ml
# [17] = system: Candida albicans; assay: Suppression of EFG1 gene expression in Candida albicans SC5314 assessed as fold increase at 8 microg/ml by real time RT-PCR analysis relative to control; assay type: functional; conditions: dose 8.0 µg/ml
# [18] = Clearance in Sprague-Dawley rat at 2 mg/kg, iv measured upto 24 hrs by LC-MS/MS analysis; assay type: ADME, organism-based; conditions: in vivo
# [19] = system: Pichia kudriavzevii; assay: Antifungal activity against Candida krusei 4996 assessed as growth inhibition measured after 48 hrs incubation by CLSI based micro-dilution broth method; assay type: functional
# [20] = system: Candida albicans; assay: Antifungal activity against FCZ-resistant Candida albicans SC5314 assessed as reduction in CFU at 0.5 to 2 microg/ml measured at 24 hrs incubation by time kill assay (reference value: 5 log10 CFU/ml); assay type: functional; conditions: dose 0.5-2 µg/ml
# [21] = Metabolic stability in mouse liver microsomes assessed as intrinsic clearance measured per mg of protein upto 60 mins by LC-MS/MS analysis; assay type: ADME, Microsome; conditions: read-out: CLH
# [22] = system: Candida albicans; assay: Antifungal activity against FCZ-resistant Candida albicans strain 904 assessed as growth inhibition measured after 48 hrs incubation by CLSI based micro-dilution broth method; assay type: functional
# [23] = system: Candida albicans; assay: Synergistic antifungal activity against FCZ-resistant Candida albicans strain 901 assessed as fractional inhibitory concentration index measured after 48 hrs in presence of FCZ by CLSI based micro-dilution broth method; assay type: functional
# [24] = system: Candida albicans; assay: Synergistic antifungal activity against FCZ-resistant Candida albicans strain 904 assessed as fractional inhibitory concentration index measured after 48 hrs in presence of FCZ by CLSI based micro-dilution broth method; assay type: functional
# [25] = system: Candida albicans; assay: In vivo antifungal activity against Candida albicans SC5314 infected in po dosed C57BL/6J mouse assessed as reduction in fungal burden in kidney treated once a day for 2 days; assay type: functional, organism-based; conditions: dose 5-10 mg/kg, time 2.0 day
# [26] = system: Candida albicans; assay: Induction of cell wall component change in Candida albicans SC5314 assessed as swollen inner beta glucan layer at 4 microg/ml measured after 12 hrs by transmission electron microscopy; assay type: functional, organism-based; conditions: dose 4.0 µg/ml
# [27] = system: Candida albicans; assay: Upregulation of EFG1 gene expression in Candida albicans SC5314 assessed as fold increase at 4 microg/ml by real time RT-PCR analysis relative to control; assay type: functional; conditions: dose 4.0 µg/ml
# [28] = Cytotoxicity against human HUVEC cells assessed as cell viability at 16 microg/ml measured after 24 hrs by CCK-8 assay relative to control; assay type: toxicity, cell-based; conditions: at 16 µg/mL, read-out: Activity
# [29] = system: Candida albicans; assay: Suppression of SAP6 gene expression in Candida albicans SC5314 assessed as fold increase at 8 microg/ml by real time RT-PCR analysis relative to control; assay type: functional; conditions: dose 8.0 µg/ml
# [30] = system: [Candida] auris; assay: Antifungal activity against FCZ-resistant Candida auris 918 assessed as growth inhibition measured after 48 hrs incubation by CLSI based micro-dilution broth method; assay type: functional; conditions: Candidozyma auris
# [31] = system: Candida albicans; assay: Induction of cell wall component change in Candida albicans SC5314 assessed as change in chitin content by measuring […] fluorescence intensity at 4 microg/ml measured after 12 hrs by confocal laser-scanning microscopy; assay type: functional, organism-based; conditions: dose 4.0 µg/ml
# [32] = AUC (0 to infinity) in Sprague-Dawley rat at 2 mg/kg, iv measured upto 24 hrs by LC-MS/MS analysis; assay type: ADME, organism-based; conditions: in vivo
# [33] = system: Candida albicans; assay: Upregulation of SAP6 gene expression in Candida albicans SC5314 assessed as fold increase at 4 microg/ml by real time RT-PCR analysis relative to control; assay type: functional; conditions: dose 4.0 µg/ml
# [34] = system: Pichia kudriavzevii; assay: Antifungal activity against FCZ-resistant Candida krusei 4996 assessed as growth inhibition at 4 microg/ml measured at 24 hrs incubation by time growth assay; assay type: functional, organism-based; conditions: dose 4.0 µg/ml
# [35] = system: Nakaseomyces glabratus; assay: Antifungal activity against Candida glabrata 537 assessed as growth inhibition measured after 48 hrs incubation by CLSI based micro-dilution broth method; assay type: functional
# [36] = system: Candida albicans; assay: Induction of cell wall component change in Candida albicans SC5314 assessed as thinner mannan layer at 4 microg/ml measured after 12 hrs by transmission electron microscopy; assay type: functional, organism-based; conditions: dose 4.0 µg/ml
# [37] = system: Candida albicans; assay: Antifungal activity against FCZ-resistant Candida albicans SC5314 assessed as growth inhibition measured after 48 hrs incubation by CLSI based micro-dilution broth method; assay type: functional
smiles,measurement,setting,value
O=[N+]([O-])c1ccc(O)c(/C=N/Nc2nc(NCc3ccc(F)cc3)nc(NCc3ccc(F)cc3)n2)c1,Activity,[1],inactive
same,Activity,[2],Active
same,Activity,[3],Active
same,fold change (FC),[4],1.58
same,MIC80,[5],0.25 µg/mL
same,fold change (FC),[6],1.9
same,"hemolysis at 1 h, 64 microg/ml",[7],4.92%
same,Activity,[8],70%
same,MIC80,[9],0.25 µg/mL
same,Activity,[10],Dose-Dependent Effect
same,MIC80,[11],2 µg/mL
same,Activity,[12],70%
same,Activity,[13],Active
same,MIC80,[14],0.5 µg/mL
same,Activity,[15],Active
same,fold change (FC),[16],1.22
same,fold change (FC),[17],1.52
same,clearance,[18],22.9 mL/min/kg
same,MIC80,[19],1 µg/mL
same,Activity,[20],3.2 log10CFU/ml
same,microsomal CLint,[21],24.9 µL/min/mg
same,MIC80,[22],1 µg/mL
same,fractional inhibitory concentration index (FICI),[23],0.25
same,fractional inhibitory concentration index (FICI),[24],0.38
same,Activity,[25],Dose-Dependent Effect
same,Activity,[26],Active
same,fold change (FC),[27],2.56
same,"viability at 24 h, 16 microg/ml",[28],75.5%
same,fold change (FC),[29],2.99
same,MIC80,[30],2 µg/mL
same,Activity,[31],Active
same,AUC(0-inf),[32],1470 ng·h/mL
same,fold change (FC),[33],4.38
same,Activity,[34],Active
same,MIC80,[35],0.5 µg/mL
same,Activity,[36],Active
same,MIC80,[37],4 µg/mL
